The target of this test is T1, aryl hydrocarbon receptor (AHR) (Homo sapiens, UniProt P35869).
T1 sequence (P35869 11-848): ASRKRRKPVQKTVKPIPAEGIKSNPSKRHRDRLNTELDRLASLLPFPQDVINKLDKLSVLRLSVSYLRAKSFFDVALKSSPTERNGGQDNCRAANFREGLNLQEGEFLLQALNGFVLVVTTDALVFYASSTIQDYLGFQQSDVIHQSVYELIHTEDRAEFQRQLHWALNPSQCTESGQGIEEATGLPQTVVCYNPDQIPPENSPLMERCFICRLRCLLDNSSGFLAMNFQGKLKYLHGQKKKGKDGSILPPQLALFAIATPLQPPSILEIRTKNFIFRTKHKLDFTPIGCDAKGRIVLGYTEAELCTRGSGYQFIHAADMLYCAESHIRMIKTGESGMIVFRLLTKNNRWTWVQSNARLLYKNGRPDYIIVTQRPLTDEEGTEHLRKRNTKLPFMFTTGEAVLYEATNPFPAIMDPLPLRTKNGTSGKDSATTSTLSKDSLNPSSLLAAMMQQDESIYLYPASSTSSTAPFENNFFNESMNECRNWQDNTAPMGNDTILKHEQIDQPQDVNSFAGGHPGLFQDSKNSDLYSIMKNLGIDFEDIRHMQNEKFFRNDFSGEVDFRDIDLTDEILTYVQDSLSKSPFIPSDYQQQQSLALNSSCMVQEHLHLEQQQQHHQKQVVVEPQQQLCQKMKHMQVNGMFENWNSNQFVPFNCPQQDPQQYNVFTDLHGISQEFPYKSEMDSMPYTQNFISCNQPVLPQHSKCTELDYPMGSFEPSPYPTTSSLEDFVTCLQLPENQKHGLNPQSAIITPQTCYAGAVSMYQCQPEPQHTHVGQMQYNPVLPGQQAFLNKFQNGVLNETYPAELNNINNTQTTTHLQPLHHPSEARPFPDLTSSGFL
The test can be described thus: DRE-Luciferase reporter high-throughput screen (AHR antagonist, VAF347-activated).

Where only a bound is given, the exact number is not on record here.

Source text: HepG2 hepatocellular carcinoma cells were transfected with a dioxin-response element (DRE) Firefly luciferase reporter construct. Luciferase transcription was activated with the aryl hydrocarbon receptor (AHR) agonist, VAF347. Addition of an AHR antagonist results in inhibition of the luciferase transcription and a loss of signal in the assay.
HepG2, a hepatocellular carcinoma cell line, was transfected with the dioxin-response element Firefly luciferase reporter construct using the TransIT-transfection system. Prior to transfection, HepG2 cells (Sigma) were cultured at 90% confluency in Eagle's Modified Essential Medium (Sigma)+2 mM Glutamine (Sigma), +1^% Non Essential Amino Acids (Sigma)+10% Fetal Bovine Serum (Hyclone) and harvested and counted (Biorad TC20 cell counter). OptilMEM serum-free media and TransIT (Mirus) were mixed for transfection in 150 mm dishes by adding 240 μL Transit to 3.0 mL OptiMEM, vortexing briefly to mix, and incubating at room temperature for 20 minutes. The DNA mixture was prepared by adding 80 μg plasmid (pGudLuc6.1 plasmid, Garrison et al., (1996) Fundam. Appl. Toxicol., 30, 194-203), inverting to mix, and incubating at room temperature for 30 minutes. 30×10^6 HepG2 cells were seeded in 30 mL media and 3.3 mL of the DNA, OptiMEM, and TransIT mixture was added dropwise to the plate. The plate was mixed by rocking and incubated at 37° C./5% CO2 overnight. The next day, cells were harvested by aspirating media, washing once with sterile phosphate buffered saline (PBS, Gibco), trypsinzing with 0.05% Trypsin (Corning) and harvesting cells with culture medium, and freezing with Cell Freezing Media (Gibco) at 5 50×10^6 cells/vial in 1 mL/vial.
Transiently-transfected frozen HepG2 cells with DRE-Luciferase, were thawed in a 37° C. water bath and resuspended in complete media. 4 μL cells at 15,000 cells per well was transferred into the wells of a 1536-well Alphaplate assay plate (PerkinElmer) using TEMPEST liquid dispenser. The plate was centrifuged at 1000 rpm for 1 minute. 30 nL of the controls (1 μM (S)-2-(6-((2-(1H-indol-3-yl)ethyl)amino)-2-(5-fluoropyridin-3-yl)-9H-purin-9-yl)propan-1-ol or 100% DMSO) were transferred to the assay plate using the Pin Tool on BRAVO. 1 μL of VAF347 (15 nM final concentration) in complete media was added to the wells using TEMPEST. The plate was centrifuged at 1000 rpm for 1 minute and incubated at 37° C./5% CO2 overnight. After incubation, the plate was removed from the incubator and brought to room temperature. 2 μL of room temperature Steady-Glo luciferase detection reagent (Promega) was added to the wells with TEMPEST. The plate was centrifuged at 2000 rpm for 1 minute, sealed with clear plastic seal and kept at room temperature for 15 minutes prior to measuring luminescence on ENVISION.
Approximately 166,000 compounds were screened in 132 1536-well plates in the luciferase reporter gene assay at a final concentration of 12 μM. […] Each compound was tested at 0.1 μM, 1.0 μM, and 10 μM in the DRE luciferase assay and Cell Titer Glo cytotoxicity assay (Promega). […] 512 compounds were selected for 10-point dose-response in the AHR luciferase reporter assay and the Cell Titer Glo cytotoxicity assay.

Consider `Cc1cc(NC(=O)c2nnn(-c3ccccc3)c2C)no1` [19B], for which the half-maximal inhibitory concentration (IC50) was more than 2 µM.

`CSc1nc2cc(-c3ccc(Cl)cc3)nn2c(N)c1C#N` [69B] came in with an IC50 of less than 0.2 µM. For the compound `N#Cc1cc(F)c(NC(=O)c2nsc(Cl)c2Cl)cc1F` [28A], the 50% inhibitory concentration (IC50) is 1 to 2 µM.

Regarding `CCn1c2ccccc2c2nnc(-n3nc(C)cc3C)nc21` [122B], the half-inhibitory concentration (IC50) fell in the range of 1 to 2 µM. With `CCC1CCc2c(sc(NC(=O)c3c(C)noc3C)c2C(N)=O)C1` (stereo not drawn) [31B], the IC50 fell in the range of 1 to 2 µM. On to `C1=C(c2ccccc2)CCN(c2ccc3nnnn3n2)C1` [compound 110], for which the concentration for half-maximal inhibition (IC50) fell in the range of 0.5 to 1 µM. With `O=C(Cc1ccccc1)Nc1ccc2nc(C(F)(F)F)[nH]c2c1` [111A], the IC50 is 1 to 2 µM. With `Clc1ccc(-c2nc3cc(Br)cnc3[nH]2)cc1` [72B], the concentration for half-maximal inhibition (IC50) is less than 0.2 µM. For the compound `Cc1ccc(C(=O)Nc2ccc(Br)c(C)n2)c(Cl)c1` [8B], the IC50 was in the range of 0.5 to 1 µM. Consider `Cn1c(Cl)cnc1-c1cc(=O)c2cc(Cl)ccc2o1` [53B], for which the IC50 lay within 1 to 2 µM. Compound `Cc1nc2nc(SCc3ccc(Cl)cc3)nn2c(C)c1Cl` [74B] came in with an IC50 of 1 to 2 µM. `CCN(CC)c1ncnc2sc(-c3ccccc3)cc12` [170A] returned an IC50 of 1 to 2 µM. As to `O=C1CC(c2ccc(Cl)cc2)CN1C(=O)Nc1ccccc1` (stereo not drawn) [103B], the half-inhibitory concentration (IC50) was 0.5 to 1 µM. For the compound `CC(=O)N1CC=C(c2ccc(OCc3ccc(C#N)cc3)cc2)CC1` [compound 143], the half-maximal inhibitory concentration (IC50) is 0.2 to 0.5 µM. `CN(/N=C/c1cc(Br)cs1)c1ccc(Cl)nn1` [50B] registered an IC50 of 0.5 to 1 µM. `CCCCc1ccc(C(=O)Nc2ccccc2O)cc1` [8A] had an IC50 of more than 2 µM. With `OCc1cc(Cl)c(OCc2ccc(F)cc2)c(Cl)c1` [90B] the figure was 1 to 2 µM. In turn, `COc1ccc(Cl)cc1C(=O)NCc1ccc(Cl)cc1` [89B] registered a 50% inhibitory concentration (IC50) of 1 to 2 µM. Consider `N#Cc1ccccc1OCc1cc(-c2cccs2)on1` [127A], for which the 50% inhibitory concentration (IC50) fell in the range of 1 to 2 µM. The compound `N#Cc1ccc(CSc2ncc3ccccn23)cc1` [115A] came in with a 50% inhibitory concentration (IC50) of 1 to 2 µM. Under `COc1ccc(OCc2nc(-c3cccc(F)c3)cs2)cc1` [34B] stands 1 to 2 µM; under `Cc1cc(Cl)ccc1OCc1cn2cccnc2n1` [120A], 1 to 2 µM.

`Cc1nn(C(=O)Nc2ccccc2)c(C)c1Oc1ccccc1` [22A] showed a 50% inhibitory concentration (IC50) of 1 to 2 µM. In turn, `CCCNC(=O)c1cc2sc(Cl)cc2n1C` [180A] registered an IC50 of more than 2 µM.

The compound `O=C(COC(=O)c1cn2ccccc2n1)Nc1ccc(Cl)cc1Cl` [117A] displayed a half-maximal inhibitory concentration (IC50) of more than 2 µM. Compound `COc1cccc(-c2nn3c(-c4ccccn4)nnc3s2)c1` [98A] showed an IC50 of 1 to 2 µM. Under `COc1cccc(-c2ccc(SCc3cccnc3)nn2)c1` [89A] stands more than 2 µM; under `FC(F)(F)c1cnc(-c2cnc(-c3ccccn3)nc2)c(Cl)c1` [compound 87], 0.5 to 1 µM. The compound `Cn1nc(C(F)(F)F)c2cc(C(=O)Nc3ccc(F)cc3)sc21` [24B] gave a concentration for half-maximal inhibition (IC50) of 0.5 to 1 µM. Compound `Cc1cccnc1NC(=O)c1cc2c(ccc3ccccc32)[nH]1` [51A] had a half-maximal inhibitory concentration (IC50) of 1 to 2 µM.

In turn, `Cc1[nH]c2c(C(=O)Nc3cccc(CN4CCOC4=O)c3)cccc2c1C` [40A] had an IC50 of 1 to 2 µM. Under `CC(C)NC(=O)c1ccc2c(-c3nccs3)noc2c1` [65A] stands 1 to 2 µM; under `CCOC(=O)Nc1ccc(-n2ccc(C)n2)cc1` [57B], 1 to 2 µM; under `COc1ccc(C2=C(C#N)c3nc4ccccc4n3C(=O)C2C#N)cc1` (stereo not drawn) [121B], 0.5 to 1 µM. With `COc1ccc(C(=O)Nc2cccc(F)c2)cc1C` [1B] the figure was 1 to 2 µM; with `Clc1ccc(-c2noc(-c3c[nH]nc3-c3ccccc3)n2)cc1` [86B], more than 2 µM. `O=C(CN1CCCCCC1)Nc1sc2c(c1C(=O)Nc1ccc(Br)cc1)CCC2` [42A] showed a 50% inhibitory concentration (IC50) of 1 to 2 µM. `Cc1cccc(NC(=O)c2ccc3c(c2)CC(C)O3)c1` (stereo not drawn) [38A] gave a 50% inhibitory concentration (IC50) of more than 2 µM.

`Cc1cc(C)c2c(NCc3ccccc3F)[nH]nc2n1` [122A] displayed a half-maximal inhibitory concentration (IC50) of 1 to 2 µM.

With `COC(=O)c1ccc(NC(=O)CCn2nc(C)cc2C)s1` [108A], the IC50 was more than 2 µM. For `COc1ccccc1CNc1[nH]nc2nc(C)cc(C)c12` [123A], the IC50 was in the range of 1 to 2 µM.

`COC(=O)c1cc2c(ccn2-c2ccc(F)cc2)n1CCC#N` [116B] yielded an IC50 of 1 to 2 µM. As to `N#Cc1ccccc1COc1ccc(-n2cnnn2)cc1` [compound 154], the IC50 is 0.5 to 1 µM. For the compound `Cc1ccc(-c2cc(-c3ccccc3)c3c(N)c(S(C)(=O)=O)sc3n2)cc1` [169A], the IC50 lay within 1 to 2 µM. `CC(C)C(=O)Nc1ccc2c(c1)C(=O)c1c-2nn(C)c1C(C)(C)C` [compound 148] displayed an IC50 of 0.5 to 1 µM. The compound `CCCc1c(C)nc(Nc2nc(C)c3cc(C)cc(C)c3n2)[nH]c1=O` [163A] came in with a concentration for half-maximal inhibition (IC50) of 1 to 2 µM. With `Cc1nccc(-c2cc(-c3ccc(Cl)cc3Cl)no2)n1` [131A], the half-maximal inhibitory concentration (IC50) is 1 to 2 µM. As to `Clc1ccc2nnn(OCc3coc(-c4cccs4)n3)c2c1` [132A], the IC50 fell in the range of 1 to 2 µM.

Turning to `COc1cccc(Cn2c3c(cc(NC(=O)c4ccc(C)cc4)c2=O)C(=O)CCC3)c1` [44A], the IC50 fell in the range of 1 to 2 µM. Under `COc1ccc2[nH]c(C(=O)Nc3ccc(Br)c(C)n3)cc2c1` [25B] stands 0.2 to 0.5 µM; under `CCN(C(=O)C1CC1)c1nc(-c2ccc(OC)cc2)cs1` [58A], 1 to 2 µM; under `CCOC(=O)c1sc(NC(=O)c2sccc2C)cc1C` [compound 44], 0.5 to 1 µM. `C(#Cc1ccc(-c2ccn[nH]2)cc1)c1ccccc1` [103A] showed an IC50 of 1 to 2 µM. As to `Clc1ccc(/C=N/Nc2nc3cc(Cl)ccc3[nH]2)cc1` [83A], the concentration for half-maximal inhibition (IC50) is more than 2 µM.

`Cc1nn2c(-c3cccc(NC(=O)CN4CCCCC4)c3)nnc2c2ccccc12` [119B] yielded a half-inhibitory concentration (IC50) of 0.2 to 0.5 µM. Regarding `O=C(Nc1cccc(Cl)c1)c1ccc(-n2cccn2)c([N+](=O)[O-])c1` [4A], the IC50 was in the range of 1 to 2 µM.

`COc1cccc2c1cc1c(O)nnc(C)n12` [185A] had an IC50 of more than 2 µM. The compound `CCn1c(-c2csc(N(C(C)=O)c3ccccc3)n2)nc2ccccc21` [39B] displayed a half-inhibitory concentration (IC50) of 1 to 2 µM. Under `O=C(Nc1ccc(Cl)cn1)C1Cc2ccccc2C1` [26B] stands 0.5 to 1 µM.

In turn, `Cc1c(Cl)cccc1NC(=O)c1occc1COc1ccccc1` [19A] gave an IC50 of 1 to 2 µM. Regarding `Cc1csc(-c2ccc(NC(=O)NCc3cc(C)on3)cc2)n1` [62A], the half-maximal inhibitory concentration (IC50) is more than 2 µM.

Take `COc1ccc(CC(=O)Nc2ccc(-c3nccs3)cc2)cc1S(=O)(=O)N1CCOCC1` [compound 63]: the IC50 was 0.5 to 1 µM. As to `Fc1ccc(-c2cc(N3CCCCC3)on2)cc1` [81B], the IC50 is more than 2 µM. With `COc1ccccc1N(C(=O)c1ccc(O)nc1)c1nc(-c2ccc([N+](=O)[O-])cc2)cs1` [compound 56], the IC50 is 0.2 to 0.5 µM. Consider `CCOC(=O)c1c(C)[nH]c(-c2cn3ccccc3n2)c1C` [compound 102], for which the IC50 lay in the range of 0.2 to 0.5 µM. In turn, `C#CCOc1ccc(C(=O)Nc2cccc(OC)c2)cc1` [1A] yielded an IC50 of more than 2 µM. The compound `O=[N+]([O-])c1cccc(-c2csc(-c3cccc(-n4cnc(Cl)c4Cl)c3)n2)c1` [compound 51] showed a concentration for half-maximal inhibition (IC50) of 0.2 to 0.5 µM.

With `N#Cc1c(N)nc2c(oc3ccccc32)c1-c1ccccc1` [123B], the half-maximal inhibitory concentration (IC50) fell in the range of 1 to 2 µM.

The compound `Brc1ccc(-c2ccc(NC3CCCC3)nn2)cc1` [49B] gave an IC50 of 1 to 2 µM. Regarding `COc1ccc(C(=O)c2cnc3ncccn23)cc1` [121A], the half-inhibitory concentration (IC50) was more than 2 µM. Turning to `CNc1nc(-c2sc3ncnn3c2C)cs1` [40B], the half-inhibitory concentration (IC50) is 1 to 2 µM.

`O=[N+]([O-])c1cccc(-c2ccc(SCc3ccccc3F)nn2)c1` [48B]: the IC50 lay within 0.5 to 1 µM. `O=C(NC1CC1)c1cnc(-c2noc3ccccc23)s1` [61A] returned an IC50 of 1 to 2 µM.

For `Cc1c(C(=O)OC2CCCC2)[nH]c2c1C(=O)CCC2` [179A], the IC50 is more than 2 µM. In turn, `Cc1ccc(C(=O)Nc2cc(C(C)(C)C)on2)cc1` [25A] gave an IC50 of more than 2 µM. As for `COc1ccc(Sc2nccc(N(C)C)c2C#N)cc1` [95A], the concentration for half-maximal inhibition (IC50) was more than 2 µM. In turn, `C/C(=N\CCc1ccccc1)c1c(C(F)(F)F)[nH]n(-c2nc3ccccc3s2)c1=O` [153A] registered a concentration for half-maximal inhibition (IC50) of more than 2 µM. `CN(Cc1ccsc1)c1nc2ccccn2c1[N+](=O)[O-]` [68B] yielded a concentration for half-maximal inhibition (IC50) of 1 to 2 µM.

`Cc1ccc(S(=O)(=O)N=C(N)Nc2nc(C)c3cc(C)ccc3n2)cc1` [164A]: the 50% inhibitory concentration (IC50) is 1 to 2 µM. `COc1ccc(N2CCN(c3nc(C(F)(F)F)cs3)CC2)cc1` [compound 111]: the half-inhibitory concentration (IC50) lay within 0.5 to 1 µM.

As for `COc1ccc(-c2csc(C3=C(N)N(C(C)C)CC3=O)n2)cc1` [compound 55], the half-maximal inhibitory concentration (IC50) was in the range of 0.5 to 1 µM.

As to `CC(C)CCNC(=O)c1cc2c(=O)n(C)c3ccccc3c2s1` [compound 145], the IC50 lay in the range of 0.5 to 1 µM.

`Clc1ccc(-c2csc(-c3ccc4c(c3)CCO4)n2)s1` [38B] came in with a concentration for half-maximal inhibition (IC50) of 0.5 to 1 µM.

`O=C(Nc1ccc(N2CCc3sccc3C2)nc1)c1cc(Br)c[nH]1` [32A] gave an IC50 of 1 to 2 µM.

Broadly, the IC50 is the concentration that inhibits the measured activity by half. Read a low IC50 as greater potency in that assay.

Values taken from patent US20210220408A1, “ARYL HYDROCARBON RECEPTOR ANTAGONISTS AND METHODS OF USE” (Magenta Therapeutics Inc., priority 2018, published 2021).
